Legend:
[1] = test system: LASV GPC protein-mediated cell–cell fusion (293T/LASV/EGFP cells and Huh-7 cells); settings: pH 5; for IC50: 12 h
[2] = assay type: physicochemical; settings: pH 7.2

| SMILES | IC50 [1] [µM] | Inhibition of cell–cell fusion at 20 μM [1] | α-helical ratio [2] [%] |
| --- | --- | --- | --- |
| CC[C@H](C)[C@H](NC(=O)[C@H](CC(=O)O)NC(=O)[C@H](CC(=O)O)NC(=O)[C@H](CO)NC(=O)[C@H](Cc1ccccc1)NC(=O)[C@H](Cc1c[nH]cn1)NC(=O)[C@@H](NC(=O)[C@H](CCC(=O)O)NC(=O)[C@H](CC(N)=O)NC(=O)[C@H](CC(C)C)NC(=O)[C@H](Cc1ccc(O)cc1)NC(=O)[C@@H](N)CO)[C@@H](C)O)C(=O)N[C@@H](CCC(=O)O)C(=O)N[C@@H](CCC(N)=O)C(=O)N[C@@H](CCC(N)=O)C(=O)N[C@@H](C)C(=O)N[C@@H](CC(=O)O)C(=O)N[C@@H](CC(N)=O)C(=O)N[C@@H](CCSC)C(=O)N[C@H](C(=O)N[C@H](C(=O)N[C@@H](CCC(=O)O)C(=O)N[C@@H](CCSC)C(=O)N[C@@H](CC(C)C)C(=O)N[C@@H](CCC(N)=O)C(=O)N[C@@H](CCCCN)C(=O)N[C@@H](CCC(=O)O)C(=O)N[C@@H](Cc1ccc(O)cc1)C(=O)N[C@@H](CCSC)C(=O)N[C@@H](CCC(=O)O)C(=O)N[C@@H](CCCNC(=N)N)C(=O)N[C@@H](CCC(N)=O)C(=O)NCC(=O)N[C@@H](CCCCN)C(=O)N[C@H](C(=O)N1CCC[C@H]1C(=O)N[C@@H](CC(C)C)C(=O)O)[C@@H](C)O)[C@@H](C)O)[C@@H](C)CC [HR2-2] | 26.4 | 30–40% | – |
| CC[C@H](C)[C@H](NC(=O)[C@H](CC(=O)O)NC(=O)[C@H](CC(=O)O)NC(=O)[C@H](CO)NC(=O)[C@H](Cc1ccccc1)NC(=O)[C@H](Cc1c[nH]cn1)NC(=O)[C@@H](NC(=O)[C@H](CCC(=O)O)NC(=O)[C@H](CC(N)=O)NC(=O)[C@H](CC(C)C)NC(=O)[C@H](Cc1ccc(O)cc1)NC(=O)[C@H](CO)NC(=O)CNC(=O)[C@H](CC(N)=O)NC(=O)[C@H](CO)NC(=O)[C@@H](NC(=O)[C@H](CC(C)C)NC(=O)[C@H](Cc1c[nH]c2ccccc12)NC(=O)[C@@H](N)CS)C(C)C)[C@@H](C)O)C(=O)N[C@@H](CCC(=O)O)C(=O)N[C@@H](CCC(N)=O)C(=O)N[C@@H](CCC(N)=O)C(=O)N[C@@H](C)C(=O)N[C@@H](CC(=O)O)C(=O)N[C@@H](CC(N)=O)C(=O)N[C@@H](CCSC)C(=O)N[C@H](C(=O)N[C@H](C(=O)N[C@@H](CCC(=O)O)C(=O)N[C@@H](CCSC)C(=O)N[C@@H](CC(C)C)C(=O)N[C@@H](CCC(N)=O)C(=O)N[C@@H](CCCCN)C(=O)N[C@@H](CCC(=O)O)C(=O)N[C@@H](Cc1ccc(O)cc1)C(=O)N[C@@H](CCSC)C(=O)N[C@@H](CCC(=O)O)C(=O)N[C@@H](CCCNC(=N)N)C(=O)N[C@@H](CCC(N)=O)C(=O)NCC(=O)N[C@@H](CCCCN)C(=O)N[C@H](C(=O)N1CCC[C@H]1C(=O)N[C@@H](CC(C)C)C(=O)NCC(=O)N[C@@H](CC(C)C)C(=O)N[C@H](C(=O)N[C@@H](CC(=O)O)C(=O)O)C(C)C)[C@@H](C)O)[C@@H](C)O)[C@@H](C)CC [HR2-1] | 0.37 | completely inhibit | 28 |
